We go through two molecules from PMC12323621, “Exploring the antimicrobial activity of pantothenamides against uropathogenic Escherichia coli” (Microbiology Spectrum, 2025).

SMILES strings stand for the structures. ≈ marks a conversion by molar mass, not a printed value. Like-named read-outs stand apart in the source and are kept apart here. Bounds are passed on as bounds.

Data set [1] deals with UPEC strain CFT073. The data set can be described thus: Antimicrobial susceptibility assay, UPEC grown in pooled human urine. Format: cell-based, Escherichia coli. From the text: Unless otherwise noted, all reagents were obtained from commercial sources. BAP, 1, and N5-Pan analogs were synthesized according to previously reported procedures ([31], [53]). Urine was self-collected from adult males and females (not menstruating) between 24 and 57 years old (recruitment was open to donors 18–65 years old), who had not used anti-infectives or cranberry products for at least 7 days prior to collection. The collection protocol was approved by the Johns Hopkins University Institutional Review Boards under IRB study NA_00085130. Informed, written consent was obtained from all participants prior to collection. Urine was collected from at least 7 participants over 14 days, stored at 4°C upon collection, and then pooled, filter-sterilized, and frozen at −20°C. Urine Batch A included five male and three female donors with an average age of 33 years (range: 24–57). Urine Batch B included four male and five female donors with an average age of 26 years (range: 24–43). Samples from two donors (donations made at least 30 days apart) were included in both Batch A and Batch B. Urine Batch C included four male and three female donors with an average age of 27 years (range: 24–36). Urine Batch D included four male and three female donors with an average age of 27 years (range: 25–35). Solid urine agar plates were prepared by supplementing cooled 1.5% (wt/vol) agar with filter-sterilized urine in a 4:1 ratio. Liquid MOPS-glycerol was prepared by adding 10 × 3-(N-morpholino)propanesulfonic acid (MOPS) Buffer (Teknova) to water to a final 1× concentration, 1.32 mM K2HPO4, and 0.4% (vol/vol) glycerol and then filter-sterilizing. Unless otherwise noted, all media were supplemented with freshly prepared 20 µM FeSO4. OD600 analyses were performed on Mettler-Toledo UV5Bio UV/Visible spectrophotometer (Columbus, Ohio, USA). For antimicrobial studies, uropathogenic E. coli strain CFT073 (ATCC: BAA-2503) was provided by Kevin Schwartz from the lab of Rodney Welch. All manipulation of UPEC was conducted in a certified biosafety level 2 (BSL-2) laboratory while using BSL-2-associated safety procedures. Antimicrobial data were collected on a Biotek Epoch 2 microplate reader or a Biotek Synergy Neo 2 microplate reader. For metabolic stability studies, losartan potassium (PHR1602), used as an internal standard, was bought from Millipore Sigma (Burlington, MA). Methanol (A456-4) and acetonitrile (A955-4) were purchased from Fisher Chemical (Pittsburgh, PA). Water (9831-03) was purchased from JT Baker (Philipsburg, NJ). Dimethyl sulfoxide (DMSO)(154938-500mL) was purchased from Sigma Aldrich (St. Louis, MO). Mouse plasma (WT) was purchased from Innovative Research (Novi, MI). Mouse liver microsomes (M1000) were purchased from XenoTech LLC (Kansas City, KS).
All antimicrobial susceptibility assays were conducted as previously described using an aseptic technique with some modification ([7]). Briefly, 3–5 isolated colonies of CFT073 on LB agar or pooled urine agar were inoculated into 3 mL of liquid MOPS-glycerol medium or pooled urine, respectively, and grown overnight with shaking at 37°C. Saturated cultures were diluted 1:50 in fresh medium and grown to an OD600 of 0.4. These exponential phase cultures were then diluted 1:1,000 into fresh medium to yield the experimental inoculum, which was mixed 1:1 with medium containing 1 or N5-Pan analog at twice the desired final concentration in 96-well plates. The final concentration of bacteria in each well was approximately 10^5 CFU/mL in a final volume of 200 µL. The concentration ranges of compounds evaluated in MOPS-glycerol were: 1 (0–312.5 μM), 2 (0–100 μM), 3 (0–500 μM), 4–5 (0–2,000 μM), 6–7 (0–100 μM), and 8–12 (0-2,000 μM). Analogs 1, 6, and 7 were evaluated over a range of 0–4,000 μM in four batches of pooled human urine. The OD600 was monitored for 24 h (MOPS-glycerol) or 16 h (pooled urine) at 37°C with periodic shaking. […]

In another data set the test system is serum pantetheinases. The settings on record: cited from earlier work.
For a further data set, the system named is mammalian cells. As to conditions: cited from earlier work.
The subject of data set [2] is UPEC strain CFT073. Details: method as in PMID 37107054. As to conditions: cited from earlier work.
For data set [3], the system named is UPEC strain CFT073. More on the design: method as in PMID 37107054. The settings on record: 1 combined with BAP; cited from earlier work.
Setting [4] is: Escherichia coli, UPEC CFT073, all urine batches A-D, read-out: MIC across four batches of pooled urine.
The mark [5] stands for this setting: Escherichia coli, UPEC CFT073, urine batch A, read-out: MIC in pooled human urine, urine batch A.
Where [6] appears, read: Escherichia coli, UPEC CFT073, urine batch B, read-out: MIC in pooled human urine, urine batch B.
Where [7] appears, read: Escherichia coli, UPEC CFT073, urine batch C, read-out: MIC in pooled human urine, urine batch C.
[8] abbreviates: Escherichia coli, UPEC CFT073, urine batch D, read-out: MIC in pooled human urine, urine batch D.
Setting [9] is: UPEC CFT073, urine batch A, read-out: MIC in pooled human urine, urine batch A.
Setting [10] is: UPEC CFT073, urine batch B, read-out: MIC in pooled human urine, urine batch B.

Broadly, the MIC is the lowest concentration found to suppress growth. For the molecule `CCCCCNC(=O)CNC(=O)[C@H](O)C(C)(C)CO` [compound 6, N5-α-pantothenamide], the MIC with UPEC strain CFT073 [1] (setting [4]) was 250 to 1000 µM; in the data set with UPEC strain CFT073 [1] (setting [5]) it was 1000 µM; in the data set with UPEC strain CFT073 [1] (setting [6]) it was 250 µM; in the data set on UPEC strain CFT073 [1] (setting [7]) it was 500 µM; with UPEC strain CFT073 [1] (setting [8]), 500 µM; in the data set on UPEC strain CFT073 [1] (setting [9]), 1000 µM. Also, the MIC in the data set on UPEC strain CFT073 [1] (setting [10]) amounted to 250 µM. Besides, the “fold higher MIC in urine than in MOPS-glycerol” value in the data set on UPEC strain CFT073 [1] (urine MICs vs MIC in MOPS-glycerol) is recorded as over 40 fold. For the same molecule, the “stability in the presence of serum pantetheinases” value in the data set with serum pantetheinases is “stable”. In the data set on mammalian cells, the “toxicity to mammalian cells” value is given as “non-toxic”.

Regarding `CCCCCNC(=O)CCNC(=O)[C@H](O)C(C)(C)CO` [compound 1, N-pentylpantothenamide, reference compound], the minimal inhibitory concentration (MIC) was 250 to 1000 µM with UPEC strain CFT073 [1] (setting [4]); 1000 µM in the data set on UPEC strain CFT073 [1] (setting [5]); 250 µM in the data set on UPEC strain CFT073 [1] (setting [6]); 1000 µM with UPEC strain CFT073 [1] (setting [7]); 1000 µM in the data set with UPEC strain CFT073 [1] (setting [8]); 1000 µM in the data set on UPEC strain CFT073 [1] (setting [9]). The MIC in the data set on UPEC strain CFT073 [1] (setting [10]) is given as 250 µM. For the same molecule, the “fold drop in potency in urine versus MOPS-glycerol” value in the data set on UPEC strain CFT073 [2] (UPEC CFT073) was at least 30 fold. Further, in the data set on UPEC strain CFT073 [2] (UPEC, commercial pooled human urine), the “MIC in commercial pooled human urine” value is given as 156 µM (≈ 45 µg/mL). For the same molecule, the “interaction with BAP against UPEC in urine” value in the data set with UPEC strain CFT073 [3] was “synergy”.
